Patent US20200172631A1, “ERBB2/HER2 MUTATIONS IN THE TRANSMEMBRANE OR JUXTAMEMBRANE DOMAIN” (GENENTECH, INC., priority 2017, published 2020)

System: TM/JM Her2 mutants expressed in BaF3 cells
Test: BaF3 cell viability assay, all Her2 TM/JM mutants tested
Format: cell-based, human
Details: BaF3 system, all Her2 TM/JM mutants tested (FIG. 7)
Method: BaF3 cells were maintained in RPMI 1640 supplemented with 10% (v/v) fetal bovine serum (Thermo Fisher Scientific, IL), 2 mM L-glutamine, 100 U/ml penicillin, 100 mg/ml streptomycin (complete RPMI) and 2 ng/mL mouse IL-3.
BaF3 cells were cultured in complete RPMI media supplemented with recombinant murine IL-3 (mIL-3) and puromycin (1 μg/ml).
BaF3 cells survival assay was performed as described previously (Jaiswal et al., 2011). Briefly, stable cells expressing Her2 WT or mutants were washed twice times with 1× PBS and plated in 96-well plates (10,000 cells/well) in replicates of 12 in complete RPMI medium without IL-3. Cell viability was measured using the Cell Titer Glo Luminescence Cell Viability Kit (Promega, CA), and plates were read on a Synergy 2 (Biotek Instruments) luminescence plate reader. Relative survival reported was calculated as a ratio of relative luciferase activity (RLU) at day 4 over RLU measured at the day 0. The mutant Her2 constructs were tested in BaF3 either alone or in the presence of WT Flag tagged Her2 as indicated.
Viable cell number was assessed 4 days after treatment using Cell Titer-Glo Luminescent cell viability assay kit (Promega, WI). Non-linear regression plot of antibodies and their fractions or inhibitors were generated and calculation of IC50 was performed using GraphPad Prism 5.00 (GraphPad Software, CA). […]

CS(=O)(=O)CCNCc1ccc(-c2ccc3ncnc(Nc4ccc(OCc5cccc(F)c5)c(Cl)c4)c3c2)o1 [lapatinib]
response of Her2 TM/JM mutants to ERBB2 kinase inhibitory small molecule drugs, effect on cell survival: respond

CCOc1cc2ncc(C#N)c(Nc3ccc(OCc4ccccn4)c(Cl)c3)c2cc1NC(=O)/C=C/CN(C)C [neratinib]
response of Her2 TM/JM mutants to ERBB2 kinase inhibitory small molecule drugs, effect on cell survival: respond
